Drawing on ChEMBL document CHEMBL5649169 (ChemMedChem, 2018), this text covers ED50 for 1 molecule.

Experiment [1] addresses V-type proton ATPase 16 kDa proteolipid subunit c (Homo sapiens) (UniProt P27449).
For experiment [2], the target named is Uncharacterized aarF domain-containing protein kinase 5 (Homo sapiens) (UniProt Q3MIX3).
For experiment [3], the target named is Solute carrier family 2, facilitated glucose transporter member 1 (Homo sapiens) (UniProt P11166).
Experiment [4] deals with ALK tyrosine kinase receptor (Homo sapiens) (UniProt Q9UM73).
ALK tyrosine kinase receptor (Homo sapiens), sequence (Q9UM73 19-1620 limits assumed): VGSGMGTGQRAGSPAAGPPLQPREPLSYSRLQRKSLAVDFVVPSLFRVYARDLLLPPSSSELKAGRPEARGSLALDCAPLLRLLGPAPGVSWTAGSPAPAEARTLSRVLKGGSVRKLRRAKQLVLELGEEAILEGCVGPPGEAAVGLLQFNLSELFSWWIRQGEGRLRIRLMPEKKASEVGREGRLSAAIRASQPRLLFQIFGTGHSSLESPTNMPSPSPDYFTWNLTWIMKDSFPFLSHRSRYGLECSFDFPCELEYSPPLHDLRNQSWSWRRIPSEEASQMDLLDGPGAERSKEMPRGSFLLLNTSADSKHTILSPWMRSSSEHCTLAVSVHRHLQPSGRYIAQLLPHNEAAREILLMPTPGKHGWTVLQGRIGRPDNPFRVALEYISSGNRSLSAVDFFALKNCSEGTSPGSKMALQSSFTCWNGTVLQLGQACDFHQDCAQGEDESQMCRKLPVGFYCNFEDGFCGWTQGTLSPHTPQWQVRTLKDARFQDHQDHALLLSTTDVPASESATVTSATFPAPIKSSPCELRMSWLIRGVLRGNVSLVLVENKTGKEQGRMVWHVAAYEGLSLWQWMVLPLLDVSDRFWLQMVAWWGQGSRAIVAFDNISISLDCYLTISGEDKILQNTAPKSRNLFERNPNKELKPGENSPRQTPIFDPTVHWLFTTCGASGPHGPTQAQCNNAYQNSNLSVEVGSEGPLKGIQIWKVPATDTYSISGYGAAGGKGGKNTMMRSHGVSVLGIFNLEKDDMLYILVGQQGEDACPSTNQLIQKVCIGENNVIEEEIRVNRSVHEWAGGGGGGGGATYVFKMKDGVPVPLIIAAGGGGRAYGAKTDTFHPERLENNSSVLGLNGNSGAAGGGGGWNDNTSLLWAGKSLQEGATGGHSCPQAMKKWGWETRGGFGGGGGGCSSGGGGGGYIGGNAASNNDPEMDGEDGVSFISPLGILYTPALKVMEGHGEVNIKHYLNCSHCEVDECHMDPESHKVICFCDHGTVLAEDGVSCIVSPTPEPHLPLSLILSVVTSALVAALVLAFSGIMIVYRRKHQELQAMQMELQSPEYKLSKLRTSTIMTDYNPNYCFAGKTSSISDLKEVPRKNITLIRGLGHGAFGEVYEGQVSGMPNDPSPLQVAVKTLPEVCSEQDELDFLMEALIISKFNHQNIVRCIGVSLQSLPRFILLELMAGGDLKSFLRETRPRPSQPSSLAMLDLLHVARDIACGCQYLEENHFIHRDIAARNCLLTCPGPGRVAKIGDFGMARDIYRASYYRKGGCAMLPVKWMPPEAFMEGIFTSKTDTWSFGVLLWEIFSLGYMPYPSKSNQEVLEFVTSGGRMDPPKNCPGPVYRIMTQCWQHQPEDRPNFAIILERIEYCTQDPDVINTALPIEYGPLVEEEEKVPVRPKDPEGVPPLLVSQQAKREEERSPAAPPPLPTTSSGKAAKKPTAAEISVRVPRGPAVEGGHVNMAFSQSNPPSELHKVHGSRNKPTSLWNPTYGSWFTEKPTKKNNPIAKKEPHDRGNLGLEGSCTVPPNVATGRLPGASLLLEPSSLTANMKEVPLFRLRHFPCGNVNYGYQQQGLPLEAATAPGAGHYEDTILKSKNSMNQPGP
In experiment [5] the target is Elongation factor G, mitochondrial (Homo sapiens) (UniProt Q96RP9).
Elongation factor G, mitochondrial (Homo sapiens), sequence (Q96RP9 whole entry): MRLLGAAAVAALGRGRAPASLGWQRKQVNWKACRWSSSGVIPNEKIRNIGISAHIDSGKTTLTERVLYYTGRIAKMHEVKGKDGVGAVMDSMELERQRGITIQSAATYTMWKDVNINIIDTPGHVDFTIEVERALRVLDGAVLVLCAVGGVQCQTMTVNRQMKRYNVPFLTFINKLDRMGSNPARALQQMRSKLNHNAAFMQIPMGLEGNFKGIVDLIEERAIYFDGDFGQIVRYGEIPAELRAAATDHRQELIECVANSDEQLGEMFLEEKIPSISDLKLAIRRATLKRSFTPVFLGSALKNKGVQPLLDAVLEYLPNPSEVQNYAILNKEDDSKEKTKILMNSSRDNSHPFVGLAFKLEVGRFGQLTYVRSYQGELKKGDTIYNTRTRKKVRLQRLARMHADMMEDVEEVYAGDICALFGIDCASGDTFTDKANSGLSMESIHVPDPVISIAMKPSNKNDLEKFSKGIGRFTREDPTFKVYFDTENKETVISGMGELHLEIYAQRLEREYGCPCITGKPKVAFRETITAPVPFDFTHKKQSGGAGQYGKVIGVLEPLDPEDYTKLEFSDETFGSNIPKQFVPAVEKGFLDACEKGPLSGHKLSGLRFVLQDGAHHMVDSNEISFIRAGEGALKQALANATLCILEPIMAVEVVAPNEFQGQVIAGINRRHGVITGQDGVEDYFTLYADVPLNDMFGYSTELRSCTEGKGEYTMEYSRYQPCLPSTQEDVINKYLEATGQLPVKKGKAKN
The target of experiment [6] is Pumilio homolog 2 (Homo sapiens) (UniProt Q8TB72).
Experiment [7] addresses ATP synthase F(0) complex subunit 8 (Homo sapiens) (UniProt P03928).
Experiment [8] has as its target Mitochondrial import inner membrane translocase subunit Tim10 (Homo sapiens) (UniProt P62072).
Experiment [9] has as its target Complex I assembly factor ACAD9, mitochondrial (Homo sapiens) (UniProt Q9H845).
The target of experiment [10] is Presenilin-associated rhomboid-like protein, mitochondrial (Homo sapiens) (UniProt Q9H300).
Presenilin-associated rhomboid-like protein, mitochondrial (Homo sapiens), sequence (Q9H300 whole entry): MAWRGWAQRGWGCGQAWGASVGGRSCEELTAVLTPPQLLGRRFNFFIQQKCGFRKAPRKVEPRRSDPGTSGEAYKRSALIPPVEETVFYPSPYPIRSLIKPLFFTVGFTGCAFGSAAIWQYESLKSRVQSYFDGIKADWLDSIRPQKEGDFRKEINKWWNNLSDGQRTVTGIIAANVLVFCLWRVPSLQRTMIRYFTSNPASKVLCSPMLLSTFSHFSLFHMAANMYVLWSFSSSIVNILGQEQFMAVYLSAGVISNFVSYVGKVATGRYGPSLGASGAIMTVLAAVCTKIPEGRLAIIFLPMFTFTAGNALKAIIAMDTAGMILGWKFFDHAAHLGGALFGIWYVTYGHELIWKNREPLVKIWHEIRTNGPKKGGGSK
Experiment [11] concerns the target Replication factor C subunit 5 (Homo sapiens) (UniProt P40937).
In experiment [12] the target is Pyruvate dehydrogenase protein X component, mitochondrial (Homo sapiens) (UniProt O00330).
Pyruvate dehydrogenase protein X component, mitochondrial (Homo sapiens), sequence (O00330 whole entry): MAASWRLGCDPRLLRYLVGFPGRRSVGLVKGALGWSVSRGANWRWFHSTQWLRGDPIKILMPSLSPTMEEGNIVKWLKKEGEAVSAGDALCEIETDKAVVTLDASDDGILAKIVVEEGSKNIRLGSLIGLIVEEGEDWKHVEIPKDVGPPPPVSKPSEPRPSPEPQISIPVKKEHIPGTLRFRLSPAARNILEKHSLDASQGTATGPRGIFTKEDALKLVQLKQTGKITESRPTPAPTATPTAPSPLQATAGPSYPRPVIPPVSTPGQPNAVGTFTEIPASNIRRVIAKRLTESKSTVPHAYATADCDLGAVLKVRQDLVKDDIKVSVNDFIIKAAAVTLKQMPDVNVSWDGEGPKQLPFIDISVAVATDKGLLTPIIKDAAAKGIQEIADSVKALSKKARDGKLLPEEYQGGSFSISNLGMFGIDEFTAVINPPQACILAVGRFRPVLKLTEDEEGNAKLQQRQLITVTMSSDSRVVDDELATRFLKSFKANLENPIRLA
In experiment [13] the target is SWI/SNF-related matrix-associated actin-dependent regulator of chromatin subfamily A member 1 (Homo sapiens) (UniProt P28370).
Also: assay method not described here.

V-type proton ATPase 16 kDa proteolipid subunit c (Homo sapiens), sequence (P27449 whole entry, the tested form may be a part): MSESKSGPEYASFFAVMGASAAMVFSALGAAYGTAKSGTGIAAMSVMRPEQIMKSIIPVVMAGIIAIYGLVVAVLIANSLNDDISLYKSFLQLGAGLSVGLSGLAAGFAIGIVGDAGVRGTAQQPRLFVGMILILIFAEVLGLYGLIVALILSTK
Solute carrier family 2, facilitated glucose transporter member 1 (Homo sapiens), sequence (P11166 whole entry): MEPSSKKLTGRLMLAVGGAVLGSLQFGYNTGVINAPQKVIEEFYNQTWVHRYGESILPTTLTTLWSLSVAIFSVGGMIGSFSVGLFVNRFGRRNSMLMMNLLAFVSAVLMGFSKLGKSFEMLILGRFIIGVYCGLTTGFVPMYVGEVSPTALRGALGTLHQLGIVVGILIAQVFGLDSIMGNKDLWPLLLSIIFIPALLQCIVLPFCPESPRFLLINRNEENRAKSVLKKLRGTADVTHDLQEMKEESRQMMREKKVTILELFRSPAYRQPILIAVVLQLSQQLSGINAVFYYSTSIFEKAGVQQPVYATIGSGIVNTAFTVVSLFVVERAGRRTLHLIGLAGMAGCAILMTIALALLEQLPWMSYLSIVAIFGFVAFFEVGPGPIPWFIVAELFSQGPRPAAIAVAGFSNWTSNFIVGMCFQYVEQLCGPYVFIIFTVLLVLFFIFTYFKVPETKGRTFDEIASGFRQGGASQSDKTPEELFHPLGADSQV
ATP synthase F(0) complex subunit 8 (Homo sapiens), sequence (P03928 whole entry, one chain of several): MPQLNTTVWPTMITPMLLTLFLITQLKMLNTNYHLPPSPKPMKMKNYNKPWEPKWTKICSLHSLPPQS
Replication factor C subunit 5 (Homo sapiens), sequence (P40937 whole entry): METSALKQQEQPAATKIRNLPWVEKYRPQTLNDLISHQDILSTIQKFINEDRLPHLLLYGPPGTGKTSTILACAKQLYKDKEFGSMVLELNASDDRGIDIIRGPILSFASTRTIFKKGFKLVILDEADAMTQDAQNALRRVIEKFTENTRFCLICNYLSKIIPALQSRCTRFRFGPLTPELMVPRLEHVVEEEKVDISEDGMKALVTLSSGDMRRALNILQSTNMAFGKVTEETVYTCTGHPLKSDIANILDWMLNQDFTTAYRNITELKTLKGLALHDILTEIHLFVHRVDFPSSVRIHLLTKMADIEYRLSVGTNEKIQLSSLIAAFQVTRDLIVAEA
Uncharacterized aarF domain-containing protein kinase 5 (Homo sapiens), sequence (Q3MIX3 whole entry, the tested form may be a part): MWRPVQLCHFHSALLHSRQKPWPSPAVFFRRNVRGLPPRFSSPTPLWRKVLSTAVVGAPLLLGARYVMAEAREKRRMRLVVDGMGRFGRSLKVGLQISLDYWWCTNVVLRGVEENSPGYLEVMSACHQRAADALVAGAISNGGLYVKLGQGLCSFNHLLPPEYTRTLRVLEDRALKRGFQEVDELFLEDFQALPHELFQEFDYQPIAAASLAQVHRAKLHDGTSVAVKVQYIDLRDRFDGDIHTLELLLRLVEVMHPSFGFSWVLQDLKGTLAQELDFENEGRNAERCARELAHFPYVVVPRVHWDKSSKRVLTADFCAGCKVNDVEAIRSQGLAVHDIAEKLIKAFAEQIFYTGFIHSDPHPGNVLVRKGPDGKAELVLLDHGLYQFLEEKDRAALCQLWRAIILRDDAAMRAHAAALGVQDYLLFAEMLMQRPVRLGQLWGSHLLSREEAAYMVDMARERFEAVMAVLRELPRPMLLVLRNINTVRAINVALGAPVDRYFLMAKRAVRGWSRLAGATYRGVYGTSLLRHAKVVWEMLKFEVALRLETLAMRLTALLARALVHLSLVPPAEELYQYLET
Mitochondrial import inner membrane translocase subunit Tim10 (Homo sapiens), sequence (P62072 whole entry): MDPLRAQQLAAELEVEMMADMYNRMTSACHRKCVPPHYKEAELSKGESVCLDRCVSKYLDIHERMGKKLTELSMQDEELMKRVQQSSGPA

On to `Cc1ccc(C(=O)Nc2cccc(C(F)(F)F)c2)cc1Nc1nc(-c2cccnc2)nc2c1cnn2C`, for which the ED50 in experiment [1] was found to be 2.7 µM; in [2], 1150 µM; in experiment [3], 1.85 µM; in experiment [4], 0.00143 µM; in [5], 0.136 µM; in [6] it was 0.526 µM. In addition, the ED50 is 45.6 µM in [7]; 0.0279 µM in experiment [8]; 42.8 µM in experiment [9]; 0.00451 µM in [10]; 0.584 µM in [11]; 0.0482 µM in experiment [12]. Further, the ED50 in experiment [13] turned out to be 0.0141 µM.
